{
  "source": "the supplement of paper PMC10307832",
  "assay_in_all_cases": "relative viability (nuclei count vs DMSO), 5 days (fraction); higher = more cells survive",
  "key": {"Linifanib + Crizotinib": {"compound": "Cc1ccc(F)c(NC(=O)Nc2ccc(-c3cccc4[nH]nc(N)c34)cc2)c1 [Linifanib] + C[C@@H](Oc1cc(-c2cnn(C3CCNCC3)c2)cnc1N)c1c(Cl)ccc(F)c1Cl [Crizotinib] (partner 1 µM)", "summary_of_the_method": "(§1)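 Each reported value is a median over duplicate plates. It expresses relative viability: treated-well nuclei count divided by vehicle-well nuclei count. Lung cancer cell lines in 1536-well plates were dosed by pin tool a day after seeding, alone with one drug or with a fixed anchor-drug dose plus five library-drug doses (not always all listed) in √10 steps, and nuclei were counted after 5 days.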"}, "Linifanib + Foretinib": {"compound": "Cc1ccc(F)c(NC(=O)Nc2ccc(-c3cccc4[nH]nc(N)c34)cc2)c1 [Linifanib] + COc1cc2c(Oc3ccc(NC(=O)C4(C(=O)Nc5ccc(F)cc5)CC4)cc3F)ccnc2cc1OCCCN1CCOCC1 [Foretinib] (partner 0.25 µM)", "summary_of_the_method": "as §1"}, "Linifanib + Palbociclib": {"compound": "Cc1ccc(F)c(NC(=O)Nc2ccc(-c3cccc4[nH]nc(N)c34)cc2)c1 [Linifanib] + CC(=O)c1c(C)c2cnc(Nc3ccc(N4CCNCC4)cn3)nc2n(C2CCCC2)c1=O [Palbociclib] (partner 0.5 µM)", "summary_of_the_method": "as §1"}, "Linifanib + Trametinib": {"compound": "Cc1ccc(F)c(NC(=O)Nc2ccc(-c3cccc4[nH]nc(N)c34)cc2)c1 [Linifanib] + CC(=O)Nc1cccc(-n2c(=O)n(C3CC3)c(=O)c3c(Nc4ccc(I)cc4F)n(C)c(=O)c(C)c32)c1 [Trametinib] (partner 0.02 µM)", "summary_of_the_method": "as §1"}, "Linifanib + Tozasertib": {"compound": "Cc1ccc(F)c(NC(=O)Nc2ccc(-c3cccc4[nH]nc(N)c34)cc2)c1 [Linifanib] + Cc1cc(Nc2cc(N3CCN(C)CC3)nc(Sc3ccc(NC(=O)C4CC4)cc3)n2)n[nH]1 [Tozasertib] (partner 0.1 µM)", "summary_of_the_method": "as §1"}, "Linifanib": {"compound": "Cc1ccc(F)c(NC(=O)Nc2ccc(-c3cccc4[nH]nc(N)c34)cc2)c1 [Linifanib]", "summary_of_the_method": "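A plate was accepted only when its control CV was below 25% and the cells had doubled at least once. Viability is defined from nuclear counts as treated wells divided by vehicle wells, with the median taken across plates. That median covers lung cancer cell lines grown in 1536-well plates, dosed by pinning at five √10-spaced library-drug concentrations, and counted in MetaXpress from 4× Hoechst images after 5 days.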"}},
  "data": [
    {"cell line": "NCI-H727", "values": [
      {"measurement": "relative viability", "setting": "Linifanib + Crizotinib; first compound 0.03162 µM", "value": 1.01},
      {"measurement": "relative viability", "setting": "Linifanib + Crizotinib; first compound 0.1 µM", "value": 1.01},
      {"measurement": "relative viability", "setting": "Linifanib + Crizotinib; first compound 0.3162 µM", "value": 0.725},
      {"measurement": "relative viability", "setting": "Linifanib + Foretinib; first compound 0.03162 µM", "value": 1.03},
      {"measurement": "relative viability", "setting": "Linifanib + Foretinib; first compound 0.1 µM", "value": 0.921},
      {"measurement": "relative viability", "setting": "Linifanib + Foretinib; first compound 0.3162 µM", "value": 0.723},
      {"measurement": "relative viability", "setting": "Linifanib + Palbociclib; first compound 0.03162 µM", "value": 0.596},
      {"measurement": "relative viability", "setting": "Linifanib + Palbociclib; first compound 0.1 µM", "value": 0.67},
      {"measurement": "relative viability", "setting": "Linifanib + Palbociclib; first compound 0.3162 µM", "value": 0.651},
      {"measurement": "relative viability", "setting": "Linifanib + Trametinib; first compound 0.03162 µM", "value": 0.396},
      {"measurement": "relative viability", "setting": "Linifanib + Trametinib; first compound 0.1 µM", "value": 0.418},
      {"measurement": "relative viability", "setting": "Linifanib + Trametinib; first compound 0.3162 µM", "value": 0.388},
      {"measurement": "relative viability", "setting": "Linifanib + Tozasertib; first compound 0.03162 µM", "value": 0.535},
      {"measurement": "relative viability", "setting": "Linifanib + Tozasertib; first compound 0.1 µM", "value": 0.659},
      {"measurement": "relative viability", "setting": "Linifanib + Tozasertib; first compound 0.3162 µM", "value": 0.529},
      {"measurement": "relative viability", "setting": "Linifanib; 0.03162 µM", "value": 0.899},
      {"measurement": "relative viability", "setting": "Linifanib; 0.1 µM", "value": 1.02},
      {"measurement": "relative viability", "setting": "Linifanib; 0.3162 µM", "value": 0.855}
    ]},
    {"cell line": "NCI-H1944", "values": [
      {"measurement": "relative viability", "setting": "Linifanib + Crizotinib; first compound 0.03162 µM", "value": 1.1},
      {"measurement": "relative viability", "setting": "Linifanib + Crizotinib; first compound 0.1 µM", "value": 1.12},
      {"measurement": "relative viability", "setting": "Linifanib + Crizotinib; first compound 0.3162 µM", "value": 0.997},
      {"measurement": "relative viability", "setting": "Linifanib + Foretinib; first compound 0.03162 µM", "value": 0.928},
      {"measurement": "relative viability", "setting": "Linifanib + Foretinib; first compound 0.1 µM", "value": 0.889},
      {"measurement": "relative viability", "setting": "Linifanib + Foretinib; first compound 0.3162 µM", "value": 0.876},
      {"measurement": "relative viability", "setting": "Linifanib + Palbociclib; first compound 0.03162 µM", "value": 0.334},
      {"measurement": "relative viability", "setting": "Linifanib + Palbociclib; first compound 0.1 µM", "value": 0.353},
      {"measurement": "relative viability", "setting": "Linifanib + Palbociclib; first compound 0.3162 µM", "value": 0.35},
      {"measurement": "relative viability", "setting": "Linifanib + Trametinib; first compound 0.03162 µM", "value": 0.427},
      {"measurement": "relative viability", "setting": "Linifanib + Trametinib; first compound 0.1 µM", "value": 0.416},
      {"measurement": "relative viability", "setting": "Linifanib + Trametinib; first compound 0.3162 µM", "value": 0.381},
      {"measurement": "relative viability", "setting": "Linifanib + Tozasertib; first compound 0.03162 µM", "value": 0.249},
      {"measurement": "relative viability", "setting": "Linifanib + Tozasertib; first compound 0.1 µM", "value": 0.261},
      {"measurement": "relative viability", "setting": "Linifanib + Tozasertib; first compound 0.3162 µM", "value": 0.259},
      {"measurement": "relative viability", "setting": "Linifanib; 0.03162 µM", "value": 0.931},
      {"measurement": "relative viability", "setting": "Linifanib; 0.1 µM", "value": 1.08},
      {"measurement": "relative viability", "setting": "Linifanib; 0.3162 µM", "value": 0.963}
    ]},
    {"cell line": "HCC-366", "values": [
      {"measurement": "relative viability", "setting": "Linifanib + Crizotinib; first compound 0.03162 µM", "value": 0.558},
      {"measurement": "relative viability", "setting": "Linifanib + Crizotinib; first compound 0.1 µM", "value": 0.69},
      {"measurement": "relative viability", "setting": "Linifanib + Crizotinib; first compound 0.3162 µM", "value": 0.454},
      {"measurement": "relative viability", "setting": "Linifanib + Foretinib; first compound 0.03162 µM", "value": 1.01},
      {"measurement": "relative viability", "setting": "Linifanib + Foretinib; first compound 0.1 µM", "value": 0.981},
      {"measurement": "relative viability", "setting": "Linifanib + Foretinib; first compound 0.3162 µM", "value": 0.826},
      {"measurement": "relative viability", "setting": "Linifanib + Palbociclib; first compound 0.03162 µM", "value": 0.398},
      {"measurement": "relative viability", "setting": "Linifanib + Palbociclib; first compound 0.1 µM", "value": 0.427},
      {"measurement": "relative viability", "setting": "Linifanib + Palbociclib; first compound 0.3162 µM", "value": 0.373},
      {"measurement": "relative viability", "setting": "Linifanib + Trametinib; first compound 0.03162 µM", "value": 0.4},
      {"measurement": "relative viability", "setting": "Linifanib + Trametinib; first compound 0.1 µM", "value": 0.391},
      {"measurement": "relative viability", "setting": "Linifanib + Trametinib; first compound 0.3162 µM", "value": 0.399},
      {"measurement": "relative viability", "setting": "Linifanib + Tozasertib; first compound 0.03162 µM", "value": 0.0836},
      {"measurement": "relative viability", "setting": "Linifanib + Tozasertib; first compound 0.1 µM", "value": 0.0997},
      {"measurement": "relative viability", "setting": "Linifanib + Tozasertib; first compound 0.3162 µM", "value": 0.105},
      {"measurement": "relative viability", "setting": "Linifanib; 0.03162 µM", "value": 1.06},
      {"measurement": "relative viability", "setting": "Linifanib; 0.1 µM", "value": 1.05},
      {"measurement": "relative viability", "setting": "Linifanib; 0.3162 µM", "value": 0.949}
    ]},
    {"cell line": "NCI-H2009", "values": [
      {"measurement": "relative viability", "setting": "Linifanib + Crizotinib; first compound 0.03162 µM", "value": 1.07},
      {"measurement": "relative viability", "setting": "Linifanib + Crizotinib; first compound 0.1 µM", "value": 1.08},
      {"measurement": "relative viability", "setting": "Linifanib + Crizotinib; first compound 0.3162 µM", "value": 0.526},
      {"measurement": "relative viability", "setting": "Linifanib + Foretinib; first compound 0.03162 µM", "value": 1.24},
      {"measurement": "relative viability", "setting": "Linifanib + Foretinib; first compound 0.1 µM", "value": 1.25},
      {"measurement": "relative viability", "setting": "Linifanib + Foretinib; first compound 0.3162 µM", "value": 1.15},
      {"measurement": "relative viability", "setting": "Linifanib + Palbociclib; first compound 0.03162 µM", "value": 0.247},
      {"measurement": "relative viability", "setting": "Linifanib + Palbociclib; first compound 0.1 µM", "value": 0.263},
      {"measurement": "relative viability", "setting": "Linifanib + Palbociclib; first compound 0.3162 µM", "value": 0.25},
      {"measurement": "relative viability", "setting": "Linifanib + Trametinib; first compound 0.03162 µM", "value": 0.266},
      {"measurement": "relative viability", "setting": "Linifanib + Trametinib; first compound 0.1 µM", "value": 0.343},
      {"measurement": "relative viability", "setting": "Linifanib + Trametinib; first compound 0.3162 µM", "value": 0.274},
      {"measurement": "relative viability", "setting": "Linifanib + Tozasertib; first compound 0.03162 µM", "value": 0.718},
      {"measurement": "relative viability", "setting": "Linifanib + Tozasertib; first compound 0.1 µM", "value": 0.834},
      {"measurement": "relative viability", "setting": "Linifanib + Tozasertib; first compound 0.3162 µM", "value": 0.71},
      {"measurement": "relative viability", "setting": "Linifanib; 0.03162 µM", "value": 1.08},
      {"measurement": "relative viability", "setting": "Linifanib; 0.1 µM", "value": 0.972},
      {"measurement": "relative viability", "setting": "Linifanib; 0.3162 µM", "value": 0.987}
    ]},
    {"cell line": "NCI-H460", "values": [
      {"measurement": "relative viability", "setting": "Linifanib + Crizotinib; first compound 0.03162 µM", "value": 0.95},
      {"measurement": "relative viability", "setting": "Linifanib + Crizotinib; first compound 0.1 µM", "value": 1.16},
      {"measurement": "relative viability", "setting": "Linifanib + Crizotinib; first compound 0.3162 µM", "value": 0.909},
      {"measurement": "relative viability", "setting": "Linifanib + Foretinib; first compound 0.03162 µM", "value": 0.963},
      {"measurement": "relative viability", "setting": "Linifanib + Foretinib; first compound 0.1 µM", "value": 1.01},
      {"measurement": "relative viability", "setting": "Linifanib + Foretinib; first compound 0.3162 µM", "value": 0.95},
      {"measurement": "relative viability", "setting": "Linifanib + Palbociclib; first compound 0.03162 µM", "value": 0.133},
      {"measurement": "relative viability", "setting": "Linifanib + Palbociclib; first compound 0.1 µM", "value": 0.187},
      {"measurement": "relative viability", "setting": "Linifanib + Palbociclib; first compound 0.3162 µM", "value": 0.152},
      {"measurement": "relative viability", "setting": "Linifanib + Trametinib; first compound 0.03162 µM", "value": 0.178},
      {"measurement": "relative viability", "setting": "Linifanib + Trametinib; first compound 0.1 µM", "value": 0.168},
      {"measurement": "relative viability", "setting": "Linifanib + Trametinib; first compound 0.3162 µM", "value": 0.146},
      {"measurement": "relative viability", "setting": "Linifanib + Tozasertib; first compound 0.03162 µM", "value": 0.139},
      {"measurement": "relative viability", "setting": "Linifanib + Tozasertib; first compound 0.1 µM", "value": 0.436},
      {"measurement": "relative viability", "setting": "Linifanib + Tozasertib; first compound 0.3162 µM", "value": 0.475},
      {"measurement": "relative viability", "setting": "Linifanib; 0.03162 µM", "value": 0.984},
      {"measurement": "relative viability", "setting": "Linifanib; 0.1 µM", "value": 1.03},
      {"measurement": "relative viability", "setting": "Linifanib; 0.3162 µM", "value": 0.92}
    ]}
  ]
}
